Measurements reported in patent US8034811B2, “Hydroxamic acid esters and pharmaceutical use thereof” (Leo Pharma A/S, priority 2003, dated 2011).

Biological target: T1, human intracellular domain of KDR (VEGF Receptor-2) (Homo sapiens, UniProt P35968)
T1 construct: A fusion protein containing the intracellular domain (amino acids 793 to 1357) of the KDR and N-terminally tagged to GST; made in house; host or cells: Sf9 insect cells (baculovirus, pDEST20) for GST-KDR-cyt; E. coli BL21 (pGEX-4T-1) for GST-PLCγ
Test: In vitro KDR kinase assay
Assay type: biochemical
Settings: IC50 as molar concentration; GST-KDR-cyt, substrate phospholipase Cγ, ATP 100 μM, 30 min room temperature, time-resolved fluorometry
Description: The intracellular domain of the KDR receptor was used in the in vitro KDR assay. This domain contains the tyrosine kinase domain of KDR, and when expressed in Sf9 cells, this domain is constitutively active i.e. the kinase domain is phosphorylated on tyrosine residues.
The compounds to be tested were dissolved in DMSO at 10 mM, stored at −20° C. and protected from light. The maximum concentration of DMSO in the in vitro assay was 0.1%. Control samples received the same concentration of solvent as the samples treated with the test compounds.
For the kinase assays, black 96 wells MaxiSorp microtiter plates were coated by an overnight incubation with 100 μl/well of a 2.5 μg/ml solution of phospholipase Cγ in TBS buffer (40 mM Tris-HCl, pH 7.4, 20 mM Mg(C2H3O2)2, 0.02% NaN3) at 4° C. The plates were washed 3 times with TBS buffer containing 0.1% Tween-20, and the residual binding sites were masked by incubation with 1% BSA in TBS buffer containing 0.1% Tween-20 for 1 h. The plates were washed again and the test compounds were added at final concentrations up to 10 μM, together with ATP at the final concentration of 100 μM in 50 μl TBS buffer/well. Then, 50 μl of the human intracellular domain of KDR (VEGF Receptor-2) finally diluted 3000-3500 fold were added and were incubated for 30 min at room temperature. The plates were washed and 100 μl of the Europium labelled PY-20 anti-phosphotyrosine antibody (Wallac, FIN) were incubated in each well at the concentration of approximately 114 ng/ml for 2 h. Then, the plates were washed and 100 μl of enhancer solution (Wallac, FIN) were incubated in each well for 5 min in the dark. The plates were read in a Victor 1420 multilabel counter, using a Europium protocol for time-resolved fluorometry (Wallac, FIN): excitation 340 nm, emission 615 nm, sample pulse cycle 400 μs. Fluorescence was measured for 400 μs between flashes after a delay time of 400 μs. The background measured in the absence of enzyme was subtracted from all samples. The molar concentrations that inhibited 50% of the maximal enzymatic activity (IC50) were calculated from the dose-response curve, by fitting a straight line between the two concentrations immediately above and below the 50% inhibition point (i.e. by solving the equation y=a+bx).

T1 sequence (P35968 794-1356 limits assumed): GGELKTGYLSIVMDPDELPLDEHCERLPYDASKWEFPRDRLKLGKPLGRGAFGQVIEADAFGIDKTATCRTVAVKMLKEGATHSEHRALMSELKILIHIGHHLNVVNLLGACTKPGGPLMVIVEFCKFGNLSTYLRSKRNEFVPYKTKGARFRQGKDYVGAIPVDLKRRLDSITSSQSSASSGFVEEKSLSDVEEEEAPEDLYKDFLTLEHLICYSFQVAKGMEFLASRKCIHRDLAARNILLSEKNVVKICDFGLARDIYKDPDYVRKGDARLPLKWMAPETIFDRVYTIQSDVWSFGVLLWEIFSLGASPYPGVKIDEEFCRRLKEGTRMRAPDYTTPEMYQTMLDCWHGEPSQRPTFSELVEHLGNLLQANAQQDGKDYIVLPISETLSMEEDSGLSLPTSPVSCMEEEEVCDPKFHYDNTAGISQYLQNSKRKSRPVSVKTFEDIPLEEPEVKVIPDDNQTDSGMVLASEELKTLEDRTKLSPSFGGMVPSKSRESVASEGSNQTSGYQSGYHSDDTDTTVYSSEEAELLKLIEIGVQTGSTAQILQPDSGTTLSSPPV

| Compound | IC50 [nM] |
| --- | --- |
| O=C(NOCc1ccccc1Br)c1cccnc1NCc1ccncc1 [Compound 161, N-(2-Bromo-benzyloxy)-2-[(pyridin-4-ylmethyl)-amino]-nicotinamide] | 63.1 |
| CC(=O)OCC(=O)Nc1cc(CNc2ccccc2C(=O)NOCC2CCCC2)ccn1 [compound 223] | 31.6 |
| CCOC(=O)CNC(=O)Nc1cc(CNc2ccccc2C(=O)NOCc2ccc(C#N)cc2)ccn1 [compound 214] | 50.1 |
| O=C(NOCc1cccc(Cl)c1)c1ccccc1NCc1ccncc1 [Compound 11, N-(3-Chloro-benzyloxy)-2-[(pyridin-4-ylmethyl)-amino]-benzamide] | 126 |
| COc1ccc(CONC(=O)c2cccnc2NCc2ccc(F)cc2)cc1 [Compound 34, 2-(4-Fluoro-benzylamino)-N-(4-methoxy-benzyloxy)-nicotinamide] | 794 |
| O=C(NOCc1ccc(C(F)(F)F)cc1)c1ccccc1NCc1ccncc1 [Compound 6, N2-[(Pyridin-4-ylmethyl)-amino]-N-(4-trifluoromethyl-benzyloxy)-benzamide] | 63.1 |
| N#Cc1ccccc1CONC(=O)c1ccccc1NCc1ccncc1 [Compound 75, N-(2-Cyano-benzyloxy)-2-[(pyridin-4-ylmethyl)-amino]-benzamide] | 63.1 |
| O=C(NOCC1CCCCCC1)c1ccccc1NCc1ccncc1 [Compound 121, N-Cycloheptylmethoxy-2-[(pyridin-4-ylmethyl)-amino]-benzamide] | 50.1 |
| O=C(NOCc1ccccc1SC(F)(F)F)c1ccccc1NCc1ccncc1 [Compound 70, 2-[(Pyridin-4-ylmethyl)-amino]-N-(2-trifluoromethylsulfanyl-benzyloxy)-benzamide] | 31.6 |
| N#Cc1ccc(Br)c(CONC(=O)c2ccccc2NCc2ccncc2)c1 [Compound 81, N-(2-Bromo-5-cyano-benzyloxy)-2-[(pyridin-4-ylmethyl)-amino]-benzamide] | 50.1 |
| CCOC(=O)CNC(=O)Nc1cc(CNc2ccccc2C(=O)NOCC2CCCC2)ccn1 [compound 215] | 63.1 |
| O=C(NOCc1ccccc1I)c1ccccc1NCc1ccncc1 [Compound 45, N-(2-Iodo-benzyloxy)-2-[(pyridin-4-ylmethyl)-amino]-benzamide] | 31.6 |
| CS(=O)(=O)Nc1cc(CNc2ccccc2C(=O)NOCC2CCCC2)ccn1 [Compound 208, N-Cyclopentylmethoxy-2-[(2-methanesulfonylamino-pyridin-4-ylmethyl)-amino]-benzamide] | 79.4 |
| O=C(NOC[C@H]1CC[C@H](CO)CC1)c1ccccc1NCc1ccncc1 [Compound 130, N-(trans-4-Hydroxymethyl-cyclohexylmethoxy)-2-[(pyridin-4-ylmethyl)-amino]-benzamide] | 50.1 |
| O=C(NCCCO)c1cc(CNc2ccccc2C(=O)NOCC2CCCC2)ccc1F [Compound 188, 5-[(2-Cyclopentylmethoxycarbamoyl-phenylamino)-methyl]-2-fluoro-N-(3-hydroxypropyl)-benzamide] | 79.4 |
| N#Cc1ccc(CONC(=O)c2ccccc2NCc2ccc3c(c2)CCO3)cc1 [Compound 196, N-(4-Cyano-benzyloxy)-2-[(2,3-dihydro-benzofuran-5-ylmethyl)-amino]-benzamide] | 79.4 |
| O=C(NOCc1ccccc1)c1cccnc1NCc1ccncc1 [Compound 33, N-Benzyloxy-2-2-[(pyridin-4-ylmethyl)-amino]-nicotinamide] | 100 |
| O=C(NOCC1CCCCO1)c1ccccc1NCc1ccncc1 (centres unmarked) [Compound 142, 2-[(Pyridin-4-ylmethyl)-amino]-N-(tetrahydro-pyran-2-ylmethoxy)-benzamide] | 39.8 |
| O=C(NOCc1ccc(F)cc1)c1ccccc1NCc1ccnc(N2CCOCC2)c1 [Compound 207, N-(4-Fluoro-benzyloxy)-2-[(2-morpholin-4-yl-pyridin-4-ylmethyl)-amino]-benzamide] | 79.4 |
| O=C(NOCc1cc2c(cc1Cl)OCO2)c1ccccc1NCc1ccncc1 [Compound 71, N-(6-Chloro-benzo[1,3]dioxol-5-ylmethoxy)-2-[(pyridin-4-ylmethyl)amino]-benzamide] | 25.1 |
| O=C(NOCc1cccc(I)c1)c1ccccc1NCc1ccncc1 [Compound 46, N-(3-Iodo-benzyloxy)-2-[(pyridin-4-ylmethyl)-amino]-benzamide] | 63.1 |
| O=C(NOCc1cc(Cl)cc(Cl)c1)c1ccccc1NCc1ccncc1 [Compound 17, N-(3,5-Dichloro-benzyloxy)-2-[(pyridin-4-ylmethyl)-amino]-benzamide] | 63.1 |
| O=C(NOCc1ccc([N+](=O)[O-])cc1)c1ccccc1NCc1ccncc1 [Compound 2, N-(4-Nitro-benzyloxy)-2-[(pyridin-4-ylmethyl)-amino]-benzamide] | 126 |

Other lines, results leading:

| IC50 [nM] | Compound |
| --- | --- |
| 25.1 | O=C(NOCc1ccc(F)cc1)c1ccccc1NCc1ccncc1 [Compound 22, N-(4-Fluoro-benzyloxy)-2-[(pyridin-4-ylmethyl)-amino]-benzamide] |
| 10 | Cc1ccc(F)cc1CONC(=O)c1ccccc1NCc1ccncc1 [Compound 42, N-(5-Fluoro-2-methyl-benzyloxy)-2-[(pyridin-4-ylmethyl)-amino]-benzamide] |
| 25.1 | O=C(NOCc1ccccc1)c1ccccc1NCc1ccnc2ccccc12 [compound 230] |
| 7.94 | O=C(NOCC1CCCCCCC1)c1ccccc1NCc1ccncc1 [Compound 122, N-Cyclooctylmethoxy-2-[(pyridin-4-ylmethyl)-amino]-benzamide] |
| 7.94 | CCOC(=O)Nc1cc(CNc2ccccc2C(=O)NOCc2ccc(C#N)cc2)ccn1 [compound 225] |
| 20 | COc1c(F)c(F)c(CONC(=O)c2ccccc2NCc2ccncc2)c(F)c1F [Compound 43, 2-[(Pyridin-4-ylmethyl)-amino]-N-(2,3,5,6-tetrafluoro-4-methoxy-benzyloxy)benzamide] |
| 20 | O=C(NOCc1ccc(F)cc1Cl)c1ccccc1NCc1ccncc1 [Compound 24, N-(2-Chloro-4-fluoro-benzyloxy)-2-[(pyridin-4-ylmethyl)-amino]-benzamide] |
| 20 | O=C(NOCc1cccc(Cl)c1Cl)c1ccccc1NCc1ccncc1 [Compound 18, N-(2,3-Dichloro-benzyloxy)-2-[(pyridin-4-ylmethyl)-amino]-benzamide] |
| 7.94 | CNC(=O)Nc1cc(CNc2ccccc2C(=O)NOCc2ccc(C#N)cc2)ccn1 [Compound 210, N-(4-Cyano-benzyloxy)-2-{[2-(3-methyl-ureido)-pyridin-4-ylmethyl]-amino}-benzamide] |
| 15.8 | O=C(NOCC1CC=CCC1)c1ccccc1NCc1ccncc1 (centres unmarked) [Compound 128, N-(Cyclohex-3-enylmethoxy)-2-[(pyridin-4-ylmethyl)-amino]-benzamide] |
| 15.8 | O=C(NOCCCC1CCCC1)c1ccccc1NCc1ccncc1 [Compound 127, N-(3-Cyclopentyl-propoxy)-2-[(pyridin-4-ylmethyl)-amino]-benzamide] |
| 20 | Cc1nc(CONC(=O)c2ccccc2NCc2ccnc3ccccc23)cs1 [compound 232] |
| 20 | COCC(=O)Nc1cc(CNc2ccccc2C(=O)NOCC2CCCC2)ccn1 [compound 246] |
| 10 | CC1CC=CCC1CONC(=O)c1ccccc1NCc1ccncc1 (centres unmarked) [Compound 129, N-(6-Methyl-cyclohex-3-enylmethoxy)-2-[(pyridin-4-ylmethyl)-amino]-benzamide] |
| 7.94 | CNC(=O)Nc1cc(CNc2ccccc2C(=O)NOCc2ccc(C)c(F)c2F)ccn1 [Compound 213, N-(2,3-Difluoro-4-methyl-benzyloxy)-2-{[2-(3-methyl-ureido)-pyridin-4-ylmethyl]-amino}-benzamide] |
| 20 | CNC(=O)Nc1cc(CNc2ccccc2C(=O)NOCc2ccc(C#N)cc2OC)ccn1 [Compound 211, N-(4-Cyano-2-methoxy-benzyloxy)-2-{[2-(3-methyl-ureido)-pyridin-4-ylmethyl]-amino}-benzamide] |
| 6.31 | O=C(NOCc1ccccc1OC(F)F)c1ccccc1NCc1ccncc1 [Compound 69, N-(2-Difluoromethoxy-benzyloxy)-2-[(pyridin-4-ylmethyl)-amino]-benzamide] |
| 15.8 | O=C(NOCc1ccc(F)c(C(F)(F)F)c1)c1ccccc1NCc1ccncc1 [Compound 61, N-(4-Fluoro-3-trifluoromethyl-benzyloxy)-2-[(pyridin-4-ylmethyl)-amino]-benzamide] |
